Several values for one entry are separate records, joined by “and”; a condition that tells them apart may be missing. Identical values can stand only once. Like-named read-outs stand apart in the source and are kept apart here.
Tests used:
JAK3 = molecular target: T1, JAK3 (Homo sapiens, UniProt P52333); experiment: biochemical
T1 sequence (P52333 1-1124): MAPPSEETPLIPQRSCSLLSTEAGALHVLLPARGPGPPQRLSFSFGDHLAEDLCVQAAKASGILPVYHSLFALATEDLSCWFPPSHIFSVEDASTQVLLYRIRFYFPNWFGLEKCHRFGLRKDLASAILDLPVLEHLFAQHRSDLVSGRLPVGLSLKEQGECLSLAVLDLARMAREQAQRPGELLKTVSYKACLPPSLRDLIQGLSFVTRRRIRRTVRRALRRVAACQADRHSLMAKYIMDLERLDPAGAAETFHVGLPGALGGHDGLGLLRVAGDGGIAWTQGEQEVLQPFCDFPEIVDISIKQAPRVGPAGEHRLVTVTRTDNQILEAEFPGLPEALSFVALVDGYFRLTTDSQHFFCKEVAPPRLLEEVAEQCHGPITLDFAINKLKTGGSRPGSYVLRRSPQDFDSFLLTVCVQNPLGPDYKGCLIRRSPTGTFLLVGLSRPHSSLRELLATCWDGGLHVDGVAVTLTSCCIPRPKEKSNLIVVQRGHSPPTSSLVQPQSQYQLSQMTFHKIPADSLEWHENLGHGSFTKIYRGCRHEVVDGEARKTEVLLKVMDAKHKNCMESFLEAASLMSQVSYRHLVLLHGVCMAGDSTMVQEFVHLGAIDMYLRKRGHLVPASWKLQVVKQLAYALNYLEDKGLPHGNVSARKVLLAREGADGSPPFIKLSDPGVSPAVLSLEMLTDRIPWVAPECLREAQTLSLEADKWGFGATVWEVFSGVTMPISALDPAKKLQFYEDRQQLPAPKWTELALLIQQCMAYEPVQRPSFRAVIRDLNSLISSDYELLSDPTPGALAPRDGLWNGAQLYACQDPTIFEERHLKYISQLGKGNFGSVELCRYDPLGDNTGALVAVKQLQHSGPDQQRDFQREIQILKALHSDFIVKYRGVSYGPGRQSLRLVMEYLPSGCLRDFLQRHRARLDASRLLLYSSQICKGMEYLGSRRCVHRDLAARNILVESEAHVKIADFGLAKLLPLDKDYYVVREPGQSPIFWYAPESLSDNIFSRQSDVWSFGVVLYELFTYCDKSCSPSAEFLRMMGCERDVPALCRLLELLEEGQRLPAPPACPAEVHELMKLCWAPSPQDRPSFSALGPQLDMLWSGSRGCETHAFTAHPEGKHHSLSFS

Colo205 cells = experiment: Analysis of cell proliferation and viability; format: cell-based; settings: Homo sapiens, read-out: IC50 value
Protocol: Colo205 cells were seeded in 96 well plates and serially diluted compound was added to the wells in duplicate. Control groups included untreated cells, the compound diluent (0.1% DMSO alone) and culture medium without cells.
To measure proliferation, 3 h prior to the end of the experiment 0.5 μCi of 3H thymidine was added to each well. Cells were then harvested and the incorporated radioactivity counted on a Wallac microplate beta-counter. Cell viability was assessed using Promega CellTiter 96AQ to measure MTS conversion. Dose response curves were calculated using either Prism 3.0 (GraphPad) or SoftMax Pro 4.3.1 LS (Molecular Devices) software.

Aurora-2 (Aurora A) = molecular target: T2, Aurora-2 (Aurora A) (Homo sapiens, UniProt O14965); experiment: Aurora-2 (Aurora A) inhibition assay, coupled enzyme; format: biochemical
T2 sequence (O14965 1-403): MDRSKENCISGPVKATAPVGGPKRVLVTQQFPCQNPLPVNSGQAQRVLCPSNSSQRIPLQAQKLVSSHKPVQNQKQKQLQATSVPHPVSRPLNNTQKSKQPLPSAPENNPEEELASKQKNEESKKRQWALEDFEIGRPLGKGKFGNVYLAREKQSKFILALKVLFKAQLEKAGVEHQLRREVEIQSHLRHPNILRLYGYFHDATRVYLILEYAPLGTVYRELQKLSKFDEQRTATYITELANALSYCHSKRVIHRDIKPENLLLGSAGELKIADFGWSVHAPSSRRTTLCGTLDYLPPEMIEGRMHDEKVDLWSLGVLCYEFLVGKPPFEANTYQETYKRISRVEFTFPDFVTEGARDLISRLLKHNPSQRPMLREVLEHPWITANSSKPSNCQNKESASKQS
Protocol: Assays were carried out in a mixture of 100 mM Hepes (pH7.5), 10 mM MgCl2, 1 mM DTT, 25 mM NaCl, 2.5 mM phosphoenolpyruvate, 300 μM NADH, 30 μg/ml pyruvate kinase and 10 μg/ml lactate dehydrogenase. […] Assays were carried out at 30° C. and in the presence of 40 nM Aurora-2.
The plate was preincubated for 10 minutes at 30° C. and the reaction initiated by addition of 10 μl of Aurora-2. Initial reaction rates were determined with a Molecular Devices SpectraMax Plus plate reader over a 10 minute time course. IC50 and Ki data were calculated from non-linear regression analysis using the Prism software package (GraphPad Prism version 3.0cx for Macintosh, GraphPad Software, San Diego Calif., USA).

Aurora-1 (Aurora B) = Aurora-1 (Aurora B) (Homo sapiens, UniProt Q96GD4); experiment: Aurora-1 (Aurora B) inhibition assay (radiometric); format: biochemical; settings: read-out: Aurora B kinase Ki value
Sequence of Aurora-1 (Aurora B) (Q96GD4 whole entry): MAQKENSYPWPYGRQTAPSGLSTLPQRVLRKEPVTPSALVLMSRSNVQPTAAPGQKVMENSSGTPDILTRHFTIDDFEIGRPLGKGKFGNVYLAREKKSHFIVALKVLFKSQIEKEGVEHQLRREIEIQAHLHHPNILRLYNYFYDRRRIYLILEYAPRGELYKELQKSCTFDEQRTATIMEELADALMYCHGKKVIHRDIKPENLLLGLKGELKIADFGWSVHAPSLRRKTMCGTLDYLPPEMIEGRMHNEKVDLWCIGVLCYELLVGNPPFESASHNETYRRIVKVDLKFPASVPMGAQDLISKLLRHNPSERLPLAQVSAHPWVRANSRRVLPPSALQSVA
Protocol: An assay buffer solution was prepared which consisted of 25 mM HEPES (pH 7.5), 10 mM MgCl2, 0.1% BSA and 10% glycerol. […] To 22 μL of the Aurora-B solution, in a 96-well plate, was added 2 μl of a compound stock solution in DMSO and the mixture allowed to equilibrate for 10 minutes at 25° C. The enzyme reaction was initiated by the addition of 16 μl stock [γ-^33P]-ATP solution (˜20 nCi/μL) prepared in assay buffer, to a final assay concentration of 800 μM. The reaction was stopped after 3 hours by the addition of 16 μL 500 mM phosphoric acid and the levels of ^33P incorporation into the peptide substrate were determined by the following method.
A phosphocellulose 96-well plate (Millipore, Cat no. MAPHNOB50) was pre-treated with 100 μL of a 100 mM phosphoric acid prior to the addition of the enzyme reaction mixture (40 μL). The solution was left to soak on to the phosphocellulose membrane for 30 minutes and the plate subsequently washed four times with 200 μL of a 100 mM phosphoric acid. […] Levels of non-enzyme catalyzed background radioactivity were determined by adding 16 μL of the 500 mM phosphoric acid to control wells, containing all assay components (which acts to denature the enzyme), prior to the addition of the [γ-^33P]-ATP solution. Levels of enzyme catalyzed. ^33P incorporation were calculated by subtracting mean background counts from those measured at each inhibitor concentration. […] Ki values were calculated from initial rate data by non-linear regression using the Prism software package (Prism 3.0, Graphpad Software, San Diego, Calif.).

[1] = COLO 205, Colo205 cells, incubated for 96 hours
[2] = COLO 205, Colo205 cells, incubated for 72 hours
[3] = read-out: Aurora A kinase Ki value

Row | Ki (Aurora-2 (Aurora A); [3]) | Ki (Aurora-1 (Aurora B)) | Compound | Ki (JAK3) | IC50 (Colo205 cells; [1]) | IC50 (Colo205 cells; [2]) | also measured
1 |  |  | CCC(=O)Nc1ccc(Sc2nc(Nc3cc(C)n[nH]3)cc(N3CC(O)(C4CCCC4)C3)n2)cc1 [Compound 97] | 10 to 500 nM |  |  | IC50 (Colo205 cells; COLO 205, 72 h): ≤ 30 nM; IC50 (Colo205 cells; COLO 205, 96 h): > 1000 nM
2 |  |  | Cc1cc(Nc2cc(N3CC(F)(C4CC4)C3)nc(Sc3ccc(NC(=O)CC(F)(F)F)nc3)n2)[nH]n1 [Compound 211] | ≤ 10 nM |  |  | IC50 (Colo205 cells; COLO 205, 72 h): ≤ 30 nM
3 |  |  | Cc1cc(Nc2cc(N3CC(O)(C4CC4)C3)nc(Sc3ccc(NC(=O)C4CCCC4)cc3)n2)[nH]n1 [Compound 104] | 10 to 500 nM | ≤ 50 nM |  | 
4 |  |  | Cc1cc(Nc2cc(N3CC(F)(C4CC4)C3)nc(Sc3ccc(NC(=O)C4CC4(F)F)cc3)n2)[nH]n1 (stereo not drawn) [Compound 194] | 10 to 500 nM |  | ≤ 30 nM | 
5 |  |  | Cc1cc(Nc2cc(N3CC(F)(C4CC4)C3)nc(Sc3ccc(NC(=O)CC4CC4)cc3)n2)[nH]n1 [Compound 171] | 500 to 2000 nM |  | 30 to 200 nM | 
6 |  |  | Cc1cc(Nc2cc(N3CC(F)(C4CC4)C3)nc(Sc3ccc(NC(=O)C4CC4)cc3F)n2)n[nH]1 [Compound 170] | 10 to 500 nM |  | ≤ 30 nM | 
7 |  |  | Cc1cc(Nc2cc(N3CC(O)(C4CC4)C3)nc(Sc3ccc(NC(=O)C4CC4)cc3F)n2)[nH]n1 [Compound 110] | ≤ 10 nM | ≤ 50 nM |  | 
8 |  |  | O=C(Nc1ccc(Sc2nc(Nc3cc(C4CC4)[nH]n3)cc(N3CC(O)(C4CC4)C3)n2)cc1)C1CC1 [Compound 105] | ≤ 10 nM | ≤ 50 nM |  | 
9 |  |  | Cc1cc(Nc2cc(N3CC(O)(C4CC4)C3)nc(Sc3ccc(NC(=O)C4CC4(F)F)cc3)n2)[nH]n1 (stereo not drawn) [Compound 113] | ≤ 10 nM |  | ≤ 30 nM | 
10 |  |  | CCC(=O)Nc1ccc(Sc2nc(Nc3cc(C4CC4)[nH]n3)cc(N3CC(O)(C4CC4)C3)n2)cc1 [Compound 102] | ≤ 10 nM |  |  | IC50 (Colo205 cells; COLO 205, 96 h): ≤ 50 nM
11 |  |  | Cc1cc(Nc2cc(N3CC(F)(C4CC4)C3)nc(Sc3ccc(NC(=O)C4CC4)cc3)n2)n[nH]1 [Compound 128] | 10 to 500 nM |  |  | IC50 (Colo205 cells; COLO 205, 72 h): 30 to 200 nM; IC50 (Colo205 cells; COLO 205, 96 h): ≤ 50 nM
12 |  |  | CCC(=O)Nc1ccc(Sc2nc(Nc3cc(C)n[nH]3)cc(N3CC(O)(C(C)C)C3)n2)cc1 [Compound 99] | ≤ 10 nM | ≤ 50 nM |  | 
13 | 1 to 5 nM | 50 to 2000 nM | Cc1cc(Nc2cc(N3CC(F)(C4CC4)C3)nc(Nc3ccc4nc(C(F)(F)F)[nH]c4c3)n2)[nH]n1 [Compound 210] |  |  | > 200 nM | 
14 |  |  | CCC(=O)Nc1ccc(Sc2nc(Nc3cc(C)n[nH]3)cc(N3CC(O)(C(C)CC)C3)n2)cc1 (stereo not drawn) [Compound 100] | 10 to 500 nM | ≤ 50 nM |  | 
15 | ≤ 1 nM | ≤ 10 nM | CCCCOC1(C2CC2)CN(c2cc(Nc3cc(C)n[nH]3)nc(Sc3ccc(NC(=O)C4CC4)cc3)n2)C1 [Compound 111] |  | ≤ 50 nM |  | 
16 | ≤ 1 nM | 50 to 2000 nM | CCC(Nc1ccc(Sc2nc(Nc3cc(C)n[nH]3)cc(N3CC(O)(C4CC4)C3)n2)cc1)C(F)(F)F (stereo not drawn) [Compound 136] |  |  | > 200 nM | 
17 | 1 to 5 nM | ≤ 10 nM | Cc1cc(Nc2cc(N3CC4(CCCO4)C3)nc(Sc3ccc(NC(=O)C4CC4)cc3)n2)[nH]n1 [Compound 123] |  |  | 30 to 200 nM | 
18 |  |  | Cc1cc(Nc2cc(N3CC(O)(C4CC4)C3)nc(Sc3ccc(NC(=O)C4CC4)cc3)n2)n[nH]1 [Compound 103] | 10 to 500 nM |  |  | IC50 (Colo205 cells; COLO 205, 72 h): 30 to 200 nM; IC50 (Colo205 cells; COLO 205, 96 h): ≤ 50 nM
19 | ≤ 1 nM | 10 to 50 nM and < 25 nM | Cc1cc(Nc2cc(N3CCC3)nc(Sc3ccc(NC(=O)Cc4ccc(Cl)cc4)cc3)n2)n[nH]1 [Compound 36] |  | 50 to 1000 nM |  | 
20 |  |  | CCC(=O)Nc1ccc(Sc2nc(Nc3cc(C)n[nH]3)cc(N3CC(O)(C4CC4)C3)n2)cc1 [Compound 85] | 10 to 500 nM | ≤ 50 nM | ≤ 30 nM | 
21 |  |  | Cc1cc(Nc2cc(N3CC(F)(C4CC4)C3)nc(Sc3ccc(NC(=O)CC(F)(F)F)cc3)n2)[nH]n1 [Compound 135] | ≤ 10 nM |  |  | IC50 (Colo205 cells; COLO 205, 72 h): ≤ 30 nM; IC50 (Colo205 cells; COLO 205, 96 h): ≤ 50 nM
22 | 1 to 5 nM | 10 to 50 nM | Cc1cc(Nc2cc(N3CCC3)nc(Sc3ccc(NC(=O)c4sccc4Cl)cc3)n2)n[nH]1 [Compound 43] |  | 50 to 1000 nM |  | 
23 | 5 to 200 nM | 50 to 2000 nM | Cc1cc(Nc2cc(N3CCC3)nc(Sc3ccc(NC(=O)c4ncccc4C)cc3)n2)[nH]n1 [Compound 200] |  |  | > 200 nM | 

Row | Compound | Ki (Aurora-2 (Aurora A); [3]) | Ki (Aurora-1 (Aurora B)) | Ki (JAK3) | IC50 (Colo205 cells; [1]) | IC50 (Colo205 cells; [2]) | also measured
24 | Cc1cc(Nc2cc(N3CC(O)(C4CC4)C3)nc(Oc3ccc4nc(C)sc4c3)n2)[nH]n1 [Compound 180] | ≤ 1 nM | 10 to 50 nM | ≤ 10 nM |  | 30 to 200 nM | 
25 | Cc1cc(Nc2cc(N3CCC3)nc(Sc3ccc(C(=O)Nc4ccc(Cl)cc4)cc3)n2)n[nH]1 [Compound 21] |  | 50 to 2000 nM | ≤ 10 nM | > 1000 nM |  | Ki (Aurora-2 (Aurora A)): 5 to 200 nM
26 | Cc1cc(Nc2cc(N3CCC3)nc(Sc3ccc(NC(=O)c4ccc(Oc5ccccc5)cc4Cl)cc3)n2)[nH]n1 [Compound 87] | ≤ 1 nM | ≤ 10 nM | 500 to 2000 nM |  | 30 to 200 nM | 
27 | Cc1cc(Nc2cc(N3CCC3)nc(Sc3ccc(NC(=O)c4cccc(CN(C)C)c4)cc3)n2)[nH]n1 [Compound 138] |  | 50 to 2000 nM | 500 to 2000 nM | 50 to 1000 nM |  | 
28 | Cc1cc(Nc2cc(N3CC(F)(C4CC4)C3)nc(Sc3ccc4c(c3)CN(CC(F)(F)F)C4=O)n2)[nH]n1 [Compound 179] | ≤ 1 nM | ≤ 10 nM |  |  | 30 to 200 nM | Ki (JAK3; read-out: JAK3 Ki value): 10 to 500 nM
29 | Cc1cc(Nc2nc(Sc3ccc(NC(=O)c4ccccc4Cl)cc3)nc(N3CCC3)c2F)[nH]n1 [Compound 192] | 1 to 5 nM | 10 to 50 nM | 500 to 2000 nM |  | > 200 nM | 
